Assays:
Assay in all cases: Apoptosis by cytofluorimetry after PI incorporation (subdiploid DNA content)
Format in all cases: cell-based, human
A2058 cells = conditions: 5 or 10 µM, 24-72 h
Protocol: (§1) The human melanoma cell lines A375 and A2058, deriving from a primary tumour or lymph nodal metastasis, respectively, were kindly provided from CEINGE (Naples, Italy). Cells were grown in DMEM supplemented with 10% FBS, 2 mM L-glutamine, 100 IU/mL penicillin G and 100 µg/mL streptomycin in humidified incubator at 37 °C under 5% CO2 atmosphere. The cell line BJ-5ta, a human skin fibroblast immortalised with the human telomerase reverse transcriptase[30] was cultured in a 4:1 mixture of DMEM and Medium 199 supplemented with 4 mM L-glutamine, 4.5 g/L glucose, 1.5 g/L sodium bicarbonate, 10% FBS, 100 IU/mL penicillin G, […] streptomycin in humidified incubator at 37 °C under 5% CO2 atmosphere. All cells were split and seeded every 3 days and used during their exponential phase of growth. Cell treatments were usually carried out after 24 h from plating.
(§2) Cytofluorimetric analysis was used to determine the number of apoptotic nuclei essentially as previously described. Briefly, cells were seeded into six-well plates at 3 × 10^5 cells/well and after 24 h were treated with 4a or 0.5% (v/v) DMSO and incubated for different times. Then, cells were harvested with trypsin, and centrifuged, and the pellets were resuspended in 200 µL of a hypotonic lysis solution containing 50 µg/mL PI. After incubation at 4 °C for 30 min, cells were analysed with a FACScan flow cytometer (Becton Dickinson, Franklin Lakes, NJ, USA) to evaluate the presence of nuclei with DNA content lower than diploid.

BJ-5ta cells = conditions: 10 µM, 24-, 48- or 72-h, nontumorigenic fibroblasts
Protocol: as §1, §2

A375 cells = conditions: 5 or 10 µM, 24-72 h
Protocol: as §1, §2

## CCOC(=O)c1cccc(Nc2cc(OC)cc3ccccc23)c1 [4a]
A2058 cells
  apoptosis (cells with a hypodiploid DNA content): dose- and time-dependent increase
BJ-5ta cells
  apoptosis (cells with a subdiploid DNA content): does not exert any apoptotic effect
A375 cells
  apoptosis (cells with a hypodiploid DNA content): dose- and time-dependent increase
